This test deals with CFTR-mediated chloride transport in human intestinal epithelial enteroid cells (Homo sapiens, UniProt P13569). Kind of test: Membrane potential dye, Enteroid Assay A. The format is cell-based. As to conditions: for EC50: read-out: Ent. A EC50. An outline of the steps:
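Membrane potential dye (20 μM methyl oxonol, with 30 μM CaCCinh-A01 and 30 μM Chicago Sky Blue) loaded 25 min at room temperature into ROCK-inhibitor-seeded human enteroid cells. Chloride-free stimulation buffer triggered transport, followed by 15 min fluorescence. % Activity relative to 3 μM/3 μM/300 nM triple-combination control.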

Setting [1] is: enteroid cells incubated with test compound 18-24 hours, acute 10 μM forskolin and 300 nM N-[2,4-bis(1,1-dimethylethyl)-5-hydroxyphenyl]-1,4-dihydro-4-oxoquinoline-3-carboxamide.
[2] abbreviates: percentage of chloride transport of triple combination control (3 μM N-[(6-amino-2-pyridyl)sulfonyl]-6-(3-fluoro-5-isobutoxy-phenyl)-2-[(4S)-2,2,4-trimethylpyrrolidin-1-yl]pyridine-3-carboxamide based).

The structures appear in SMILES notation. Like-named read-outs stand apart in the source and are kept apart here. Bounds are passed on as bounds.

CFTR-mediated chloride transport in human intestinal epithelial enteroid cells, sequence (P13569 with tags, fused parts or gaps DEL508-508): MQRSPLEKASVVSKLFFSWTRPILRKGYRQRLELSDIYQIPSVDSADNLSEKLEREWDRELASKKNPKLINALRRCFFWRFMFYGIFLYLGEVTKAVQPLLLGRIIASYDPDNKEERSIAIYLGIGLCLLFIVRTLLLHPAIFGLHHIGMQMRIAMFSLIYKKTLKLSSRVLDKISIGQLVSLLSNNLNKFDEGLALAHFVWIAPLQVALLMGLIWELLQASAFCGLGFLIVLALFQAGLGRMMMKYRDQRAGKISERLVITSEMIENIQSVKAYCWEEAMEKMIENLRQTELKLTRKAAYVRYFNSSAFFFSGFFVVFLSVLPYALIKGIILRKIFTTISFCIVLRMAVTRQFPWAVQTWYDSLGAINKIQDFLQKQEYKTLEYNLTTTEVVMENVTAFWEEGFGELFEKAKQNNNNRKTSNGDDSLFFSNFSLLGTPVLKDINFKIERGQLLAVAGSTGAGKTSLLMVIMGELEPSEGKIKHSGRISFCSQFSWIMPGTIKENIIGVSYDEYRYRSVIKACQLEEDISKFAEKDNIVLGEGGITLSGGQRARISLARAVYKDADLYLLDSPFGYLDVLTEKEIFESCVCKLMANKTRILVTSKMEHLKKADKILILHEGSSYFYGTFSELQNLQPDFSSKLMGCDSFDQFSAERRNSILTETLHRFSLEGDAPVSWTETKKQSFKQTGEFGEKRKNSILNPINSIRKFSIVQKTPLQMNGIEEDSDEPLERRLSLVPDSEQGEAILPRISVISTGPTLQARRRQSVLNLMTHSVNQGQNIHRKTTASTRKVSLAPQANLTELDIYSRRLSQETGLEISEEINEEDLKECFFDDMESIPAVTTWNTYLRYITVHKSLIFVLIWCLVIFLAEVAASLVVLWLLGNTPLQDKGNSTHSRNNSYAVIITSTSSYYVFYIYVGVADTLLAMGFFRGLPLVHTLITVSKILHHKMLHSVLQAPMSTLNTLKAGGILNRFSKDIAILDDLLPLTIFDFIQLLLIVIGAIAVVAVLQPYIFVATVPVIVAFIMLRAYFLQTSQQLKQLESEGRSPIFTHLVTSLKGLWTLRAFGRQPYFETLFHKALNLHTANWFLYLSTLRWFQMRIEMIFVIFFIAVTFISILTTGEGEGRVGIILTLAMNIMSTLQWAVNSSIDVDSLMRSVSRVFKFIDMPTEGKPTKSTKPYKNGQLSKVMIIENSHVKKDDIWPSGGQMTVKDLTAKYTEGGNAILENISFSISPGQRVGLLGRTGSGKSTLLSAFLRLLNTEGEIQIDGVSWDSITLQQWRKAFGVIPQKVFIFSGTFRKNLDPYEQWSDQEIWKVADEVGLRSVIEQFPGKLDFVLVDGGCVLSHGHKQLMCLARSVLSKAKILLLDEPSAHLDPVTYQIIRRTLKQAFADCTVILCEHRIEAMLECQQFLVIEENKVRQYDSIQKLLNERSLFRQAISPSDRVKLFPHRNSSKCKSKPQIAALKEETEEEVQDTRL

Usually EC50 stands for the concentration that produces a half-maximal response. `Cc1cccc(C)c1-c1cc2nc(n1)NS(=O)(=O)c1cccc(c1)C(=O)N1CCN(CC3CC3)C[C@H](C1)O2` [Compound 35, (16R)-18-(Cyclopropylmethyl)-12-(2,6-dimethylphenyl)-8,8-dioxo-15-oxa-8λ^6-thia-1,9,11,18,22-pentazatetracyclo[14.4.1.13,7.110,14]tricosa-3,5,7(23),10(22),11,13-hexaen-2-one]: the EC50 under setting [1] is under 1 µM. For the same molecule, the “Ent. A Max Activity (%)” value under setting [2] is “+++ (+++ is >60%)”.

Take `Cc1cccc(C)c1-c1cc2nc(n1)NS(=O)(=O)c1cccc(c1)C(=O)N1CCN(C3CCC(F)CC3)C[C@H](C1)O2` (stereo partly drawn) [Compound 40, (16R)-12-(2,6-Dimethylphenyl)-18-(4-fluorocyclohexyl)-15-oxa-8λ^6-thia-1,9,11,18,22-pentaazatetracyclo[14.4.1.13,7.110,14]tricosa-3(23),4,6,10,12,14(22)-hexaene-2,8,8-trione]: under “Enteroid Assay A”, the “Ent. A Max Activity (%)” value is on record as “+++ (+++ is >600%)” and the concentration giving a half-maximal response (EC50) was under 1 µM.

As for `Cc1cccc(C)c1-c1cc2nc(n1)NS(=O)(=O)c1cccc(c1)C(=O)N1CCN(C3CCC4(CC3)COC4)C[C@H](C1)O2` [Compound 41, (16R)-12-(2,6-Dimethylphenyl)-18-{2-oxaspiro[3.5]nonan-7-yl}-15-oxa-8λ^6-thia-1,9,11,18,22-pentaazatetracyclo[14.4.1.13,7.110,14]tricosa-3(23),4,6,10,12,14(22)-hexaene-2,8,8-trione], for the setting “Enteroid Assay A”, the “Ent. A Max Activity (%)” value was “+++ (+++ is >600%)” and the EC50 is under 1 µM.

`Cc1cccc(C)c1-c1cc2nc(n1)NS(=O)(=O)c1cccc(c1)C(=O)N1CCNCC(C1)O2` (centres unmarked) [Compound 42, 12-(2,6-Dimethylphenyl)-15-oxa-8λ^6-thia-1,9,11,18,22-pentaazatetracyclo[14.4.1.13,7.110,14]tricosa-3(23),4,6,10(22),11,13-hexaene-2,8,8-trione]: the “Ent. A Max Activity (%)” value under setting [2] is listed as “++ (++ is 30-60%)”.

`Cc1cccc(C)c1-c1cc2nc(n1)NS(=O)(=O)c1cccc(c1)C(=O)N1CCN(CC(C)C)CC(C1)O2` (centres unmarked) [Compound 44, 12-(2,6-Dimethylphenyl)-18-isobutyl-8,8-dioxo-15-oxa-8λ^6-thia-1,9,11,18,22-pentazatetracyclo[14.4.1.13,7.110,14]tricosa-3,5,7(23),10(22),11,13-hexaen-2-one]: the EC50 under setting [1] was under 1 µM. Also, the “Ent. A Max Activity (%)” value under setting [2] is given as “+++ (+++ is >60%)”.

With `Cc1cccc(C)c1-c1cc2nc(n1)NS(=O)(=O)c1cccc(c1)C(=O)N1CCN(CCC(C)(C)C)CC(C1)O2` (centres unmarked) [Compound 45], the EC50 under setting [1] is under 1 µM. Also, the “Ent. A Max Activity (%)” value under setting [2] is on record as “+++ (+++ is >60%)”.

For the molecule `Cc1cccc(C)c1-c1cc2nc(n1)NS(=O)(=O)c1cccc(c1)C(=O)N1CCN(C3CCC(F)(F)CC3)CC(C1)O2` (centres unmarked) [Compound 46], where the note is “Enteroid Assay A”, the “Ent. A Max Activity (%)” value was “+++ (+++ is >600%)” and the EC50 was under 1 µM.

For `CNc1ccc(CN2CCN3CC(C2)Oc2cc(-c4c(C)cccc4C)nc(n2)NS(=O)(=O)c2cccc(c2)C3=O)cn1` (centres unmarked) [Compound 47], the EC50 under setting [1] was in the range of 3 to 30 µM. In addition, the “Ent. A Max Activity (%)” value under setting [2] is “+++ (+++ is >60%)”.

As to `Cc1cccc(C)c1-c1cc2nc(n1)NS(=O)(=O)c1cccc(c1)C(=O)N1CCN(Cc3ccn[nH]3)CC(C1)O2` (centres unmarked) [Compound 48], the concentration for a half-maximal effect (EC50) under setting [1] fell in the range of 3 to 30 µM. Besides, the “Ent. A Max Activity (%)” value under setting [2] is listed as “++ (++ is 30-60%)”.

For the molecule `Cc1cccc(C)c1-c1cc2nc(n1)NS(=O)(=O)c1cccc(c1)C(=O)N1CCN(Cc3ccn(C)n3)CC(C1)O2` (centres unmarked) [Compound 49], under setting [1], the EC50 lay in the range of 3 to 30 µM. Moreover, under setting [2], the “Ent. A Max Activity (%)” value is reported as “+++ (+++ is >60%)”.

Consider `Cc1cccc(C)c1-c1cc2nc(n1)NS(=O)(=O)c1cccc(c1)C(=O)N1CCN(Cc3cncn3C)CC(C1)O2` (centres unmarked) [Compound 51], for which the “Ent. A Max Activity (%)” value under setting [2] is reported as “+ (+ is <300%)”.

On to `Cc1cccc(C)c1-c1cc2nc(n1)NS(=O)(=O)c1cccc(c1)C(=O)N1CCN(Cc3nccs3)CC(C1)O2` (centres unmarked) [Compound 52], for which, under setting [1], the EC50 was 1 to 3 µM. Further, the “Ent. A Max Activity (%)” value under setting [2] is listed as “++ (++ is 30-60%)”.

In the case of `Cc1cccc(C)c1-c1cc2nc(n1)NS(=O)(=O)c1cccc(c1)C(=O)N1CCN(CC3CCCCC3)CC(C1)O2` (centres unmarked) [Compound 53], the EC50 under setting [1] is under 1 µM. Under setting [2], the “Ent. A Max Activity (%)” value is on record as “++ (++ is 30-60%)”.

On to `Cc1cccc(C)c1-c1cc2nc(n1)NS(=O)(=O)c1cccc(c1)C(=O)N1CCN(Cc3ccccc3C#N)CC(C1)O2` (centres unmarked) [Compound 54], for which the EC50 under setting [1] was under 1 µM. Moreover, the “Ent. A Max Activity (%)” value under setting [2] was “+++ (+++ is >60%)”.

On to `Cc1cccc(C)c1-c1cc2nc(n1)NS(=O)(=O)c1cccc(c1)C(=O)N1CCN(CC3CCOCC3)CC(C1)O2` (centres unmarked) [Compound 55], for which, under setting [1], the EC50 is 3 to 30 µM. Further, under setting [2], the “Ent. A Max Activity (%)” value is reported as “+++ (+++ is >60%)”.

For the molecule `Cc1cccc(C)c1-c1cc2nc(n1)NS(=O)(=O)c1cccc(c1)C(=O)N1CCN(CC3(C)COC3)CC(C1)O2` (centres unmarked) [Compound 56], under setting [1], the EC50 is 3 to 30 µM. Under setting [2], the “Ent. A Max Activity (%)” value was “++ (++ is 30-60%)”.

Take `Cc1cccc(C)c1-c1cc2nc(n1)NS(=O)(=O)c1cccc(c1)C(=O)N1CCN(Cc3ccccc3O)CC(C1)O2` (centres unmarked) [Compound 57]: the concentration for a half-maximal effect (EC50) under setting [1] was under 1 µM. The “Ent. A Max Activity (%)” value under setting [2] is “+++ (+++ is >60%)”.

Regarding `Cc1cccc(C)c1-c1cc2nc(n1)NS(=O)(=O)c1cccc(c1)C(=O)N1CCN(CCC(C)C)CC(C1)O2` (centres unmarked) [Compound 58], the EC50 under setting [1] is under 1 µM. Also, the “Ent. A Max Activity (%)” value under setting [2] is reported as “+++ (+++ is >60%)”.

As to `Cc1cccc(C)c1-c1cc2nc(n1)NS(=O)(=O)c1cccc(c1)C(=O)N1CCN(CC3CC4C=CC3C4)CC(C1)O2` (centres unmarked) [Compound 59], the EC50 under setting [1] is under 1 µM. For the same molecule, the “Ent. A Max Activity (%)” value under setting [2] is reported as “+++ (+++ is >60%)”.

As to `Cc1cccc(C)c1-c1cc2nc(n1)NS(=O)(=O)c1cccc(c1)C(=O)N1CCN(CCC3CCOCC3)CC(C1)O2` (centres unmarked) [Compound 60], the EC50 under setting [1] lay in the range of 3 to 30 µM. For the same molecule, the “Ent. A Max Activity (%)” value under setting [2] is recorded as “+++ (+++ is >60%)”.

Consider `Cc1cccc(C)c1-c1cc2nc(n1)NS(=O)(=O)c1cccc(c1)C(=O)N1CCN(Cc3sccc3Oc3ccccc3)CC(C1)O2` (centres unmarked) [Compound 61], for which the half-maximal effective concentration (EC50) under setting [1] is under 1 µM. Further, the “Ent. A Max Activity (%)” value under setting [2] is on record as “+++ (+++ is >60%)”.

On to `Cc1cccc(C)c1-c1cc2nc(n1)NS(=O)(=O)c1cccc(c1)C(=O)N1CCN(CCC(C)CC(C)(C)C)CC(C1)O2` (centres unmarked) [Compound 62], for which the EC50 under setting [1] was under 1 µM. Also, the “Ent. A Max Activity (%)” value under setting [2] was “+++ (+++ is >60%)”.

For `Cc1cccc(C)c1-c1cc2nc(n1)NS(=O)(=O)c1cccc(c1)C(=O)N1CCN(C)CC(C1)O2` (centres unmarked) [Compound 63], under setting [1], the EC50 was in the range of 3 to 30 µM. Also, the “Ent. A Max Activity (%)” value under setting [2] is reported as “+++ (+++ is >60%)”.

Consider `Cc1cccc(C)c1-c1cc2nc(n1)NS(=O)(=O)c1cccc(c1)C(=O)N1CCN(Cc3ccccn3)CC(C1)O2` (centres unmarked) [Compound 64, 12-(2,6-Dimethylphenyl)-18-[(pyridin-2-yl)methyl]-15-oxa-8λ^6-thia-1,9,11,18,22-pentaazatetracyclo[14.4.1.13,7.110,14]tricosa-3(23),4,6,10(22),11,13-hexaene-2,8,8-trione], for which, under setting [1], the EC50 was 1 to 3 µM. Also, the “Ent. A Max Activity (%)” value under setting [2] is “++ (++ is 30-60%)”.

Take `Cc1cccc(C)c1-c1cc2nc(n1)NS(=O)(=O)c1cccc(c1)C(=O)N1CCN(CCCC(C)(C)C)CC(C1)O2` (centres unmarked) [Compound 65, 18-(4,4-Dimethylpentyl)-12-(2,6-dimethylphenyl)-15-oxa-8λ^6-thia-1,9,11,18,22-pentaazatetracyclo[14.4.1.13,7.110,14]tricosa-3(23),4,6,10(22),11,13-hexaene-2,8,8-trione]: the EC50 under setting [1] is under 1 µM. Besides, the “Ent. A Max Activity (%)” value under setting [2] was “++ (++ is 30-60%)”.

For `Cc1cccc(C)c1-c1cc2nc(n1)NS(=O)(=O)c1cccc(c1)C(=O)N1CCN(Cc3cccnc3)C[C@H](C1)O2` [Compound 66, (36R)-16-(2,6-dimethylphenyl)-34-(pyridin-3-ylmethyl)-2-oxa-6-thia-7-aza-3(6,1)-diazepana-1(4,2)-pyrimidina-5(1,3)-benzenacycloheptaphan-4-one 6,6-dioxide], the EC50 under setting [1] was in the range of 3 to 30 µM. Besides, under setting [2], the “Ent. A Max Activity (%)” value is given as “++ (++ is 30-60%)”.

With `Cc1cccc(C)c1-c1cc2nc(n1)NS(=O)(=O)c1cccc(c1)C(=O)N1CCN(Cc3ccccc3)C[C@H](C1)O2` [Compound 67, (16R)-18-Benzyl-12-(2,6-dimethylphenyl)-15-oxa-8λ^6-thia-1,9,11,18,22-pentaazatetracyclo[14.4.1.13,7.110,14]tricosa-3(23),4,6,10(22),11,13-hexaene-2,8,8-trione], under setting [1], the EC50 was under 1 µM. The “Ent. A Max Activity (%)” value under setting [2] is given as “+++ (+++ is >60%)”.

As to `Cc1cccc(C)c1-c1cc2nc(n1)NS(=O)(=O)c1cccc(c1)C(=O)N1CCN(Cc3ccccc3)C[C@@H](C1)O2` [Compound 68, (16S)-18-benzyl-12-(2,6-dimethylphenyl)-15-oxa-8λ^6-thia-1,9,11,18,22-pentaazatetracyclo[14.4.1.13,7.110,14]tricosa-3(23),4,6,10,12,14(22)-hexaene-2,8,8-trione], under setting [1], the EC50 lay in the range of 1 to 3 µM. The “Ent. A Max Activity (%)” value under setting [2] is on record as “+ (+ is <300%)”.

`CCN1CCN2C[C@@H](C1)Oc1cc(-c3c(C)cccc3C)nc(n1)NS(=O)(=O)c1cccc(c1)C2=O` [Compound 74, (16R)-12-(2,6-Dimethylphenyl)-18-ethyl-15-oxa-8λ^6-thia-1,9,11,18,22-pentaazatetracyclo[14.4.1.13,7.110,14]tricosa-3(23),4,6,10,12,14(22)-hexaene-2,8,8-trione]: for the setting “Enteroid Assay A”, the “Ent. A Max Activity (%)” value was “+++ (+++ is >600%)” and the EC50 fell in the range of 1 to 3 µM.
